The values below come from ChEMBL document CHEMBL1130752, “Quaternary substituted PDE IV inhibitors II: the synthesis and in vitro evaluation of a novel series of gamma-lactams” (Bioorg Med Chem Lett, 1998).

In test [1] the target is T1, Phosphodiesterase 4 (Homo sapiens, UniProt P27815+Q08499+Q07343+Q08493). Kind of test: In vitro inhibition of phosphodiesterase (PDE IV) from guinea pig macrophages. Type of test: protein assay, Cavia porcellus. Conditions: target entry is the homologue from another species.
For test [2], the target named is T1, Phosphodiesterase 4. Kind of test: Affinity for phosphodiesterase (PDE IV) in guinea pig brain membrane using [3H]rolipram displacement. Type of test: cell membranes, Cavia porcellus. Conditions: target entry is the homologue from another species.

SMILES strings stand for the structures.

As to `COc1ccc(C2(Cc3ccncc3)CCN(Cc3ccccc3)C2=O)cc1OC1CCCC1` (stereo unspecified), the IC50 against Phosphodiesterase 4 [1] was 56 nM. The molecule also yielded a Ki on Phosphodiesterase 4 [2] of 51 nM.

Molecule `COc1ccc(C2(Cc3ccncc3)CCN(CC3CCCCC3)C2=O)cc1OC1CCCC1` (stereo unspecified) had an IC50 against Phosphodiesterase 4 [1] of 48 nM. The Ki on Phosphodiesterase 4 [2] was 43 nM.

Molecule `CCOC(=O)N1CCC(Cc2ccncc2)(c2ccc(OC)c(OC3CCCC3)c2)C1=O` (stereo unspecified) yielded an IC50 against Phosphodiesterase 4 [1] of 137 nM. The molecule also registered a Ki on Phosphodiesterase 4 [2] of 139 nM.

Molecule `COc1ccc(C2(Cc3ccncc3)CCN(CCC(C)C)C2=O)cc1OC1CCCC1` (stereo unspecified) displayed an IC50 against Phosphodiesterase 4 [1] of 81 nM. At Phosphodiesterase 4 [2], this molecule gave a Ki of 80 nM.

Molecule `COc1ccc(C2(Cc3cc[n+]([O-])cc3)CCN(C(=O)OC(C)(C)C)C2=O)cc1OC1CCCC1` (stereo unspecified) gave an IC50 at Phosphodiesterase 4 [1] of 59 nM. For the same molecule, the inhibitory constant (Ki) on Phosphodiesterase 4 [2] is given as 217 nM.

Take `COC(=O)N1CCC(Cc2ccncc2)(c2ccc(OC)c(OC3CCCC3)c2)C1=O` (stereo unspecified): at Phosphodiesterase 4 [1], the IC50 is given as 293 nM. On Phosphodiesterase 4 [2], this molecule showed a Ki of 822 nM.

`COc1ccc(C2(Cc3ccncc3)CCN(C(=O)N(C)C)C2=O)cc1OC1CCCC1` (stereo unspecified) showed an IC50 on Phosphodiesterase 4 [1] of 319 nM. At Phosphodiesterase 4 [2], this molecule came in with a Ki of 274 nM.

In turn, `COc1ccc(C2(Cc3ccncc3)CCN(Cc3cccc4ccccc34)C2=O)cc1OC1CCCC1` (stereo unspecified) returned an IC50 at Phosphodiesterase 4 [1] of 293 nM. For the same molecule, on Phosphodiesterase 4 [2], the Ki is 822 nM.

In turn, `COc1ccc(C2(Cc3ccncc3)CCN(C(=O)OC(C)C)C2=O)cc1OC1CCCC1` (stereo unspecified) yielded an IC50 on Phosphodiesterase 4 [1] of 44 nM. Besides, the Ki on Phosphodiesterase 4 [2] is recorded as 113 nM.

`COc1ccc(C2(Cc3ccncc3)CCNC2=O)cc1OC1CCCC1` (stereo unspecified): at Phosphodiesterase 4 [1], the IC50 came out at 800 nM. Further, at Phosphodiesterase 4 [2], the Ki is given as 210 nM.

In turn, `COc1ccc(C2(Cc3ccncc3)CCN(S(=O)(=O)c3ccc(C)cc3)C2=O)cc1OC1CCCC1` (stereo unspecified) yielded an IC50 on Phosphodiesterase 4 [1] of 61 nM. On Phosphodiesterase 4 [2], this molecule gave a Ki of 217 nM.

Consider `COc1ccc(C2(CC#N)CCN(C(=O)OC(C)(C)C)C2=O)cc1OC1CCCC1` (stereo unspecified), for which the IC50 on Phosphodiesterase 4 [1] was determined as 82 nM. The molecule also had a Ki at Phosphodiesterase 4 [2] of 476 nM.

At Phosphodiesterase 4 [1], `COc1ccc(C2(Cc3ccccc3)CCNC2=O)cc1OC1CCCC1` (stereo unspecified) gave an IC50 of 1000 nM. The molecule also registered a Ki on Phosphodiesterase 4 [2] of 787 nM.

`COc1ccc(C2(Cc3cc[n+]([O-])cc3)CCNC2=O)cc1OC1CCCC1` (stereo unspecified) yielded an IC50 against Phosphodiesterase 4 [1] of 1600 nM. Besides, the Ki at Phosphodiesterase 4 [2] is reported as 2247 nM.

In the case of `CCCCN1CCC(Cc2ccncc2)(c2ccc(OC)c(OC3CCCC3)c2)C1=O` (stereo unspecified), the IC50 against Phosphodiesterase 4 [1] was 123 nM. Moreover, at Phosphodiesterase 4 [2], the Ki worked out at 137 nM.

For `COc1ccc(C2CCNC2=O)cc1OC1CCCC1` (stereo unspecified), the IC50 at Phosphodiesterase 4 [1] was 5000 nM. This molecule also displayed a Ki on Phosphodiesterase 4 [2] of over 3745 nM.

In turn, `COc1ccc(C2(Cc3ccncc3)CCN(C(=O)OC(C)(C)C)C2)cc1OC1CCCC1` (stereo unspecified) displayed an IC50 against Phosphodiesterase 4 [1] of 807 nM. On Phosphodiesterase 4 [2], this molecule displayed a Ki of 470 nM.

In the case of `COc1ccc(C2(Cc3ccccc3)CCN(C(=O)OC(C)(C)C)C2=O)cc1OC1CCCC1` (stereo unspecified), the IC50 on Phosphodiesterase 4 [1] was 220 nM. Also, the Ki on Phosphodiesterase 4 [2] is listed as 2996 nM.

`COc1ccc(C2CCN(C(=O)OC(C)(C)C)C2=O)cc1OC1CCCC1` (stereo unspecified) yielded an IC50 against Phosphodiesterase 4 [1] of 700 nM. This molecule had a Ki at Phosphodiesterase 4 [2] of 337 nM.

`COc1ccc(C2(Cc3ccncc3)CCN(C(=O)OC(C)(C)C)C2=O)cc1OC1CCCC1` (stereo unspecified) returned an IC50 against Phosphodiesterase 4 [1] of 6.3 nM. The Ki at Phosphodiesterase 4 [2] was 7.5 nM.

In turn, `COc1ccc(C2(Cc3ccncc3)CCN(Cc3ccc4ccccc4c3)C2=O)cc1OC1CCCC1` (stereo unspecified) came in with an IC50 against Phosphodiesterase 4 [1] of 17 nM. For the same molecule, the Ki on Phosphodiesterase 4 [2] amounted to 4.3 nM.

The molecule `COc1ccc(C2(Cc3ccncc3)CCN(Cc3ccncc3)C2=O)cc1OC1CCCC1` (stereo unspecified) came in with an IC50 against Phosphodiesterase 4 [1] of 401 nM. The molecule further displayed a Ki on Phosphodiesterase 4 [2] of 443 nM.

`COc1ccc(C2(Cc3ccncc3)CCN(C(C)=O)C2=O)cc1OC1CCCC1` (stereo unspecified) returned an IC50 on Phosphodiesterase 4 [1] of 461 nM. On Phosphodiesterase 4 [2], this molecule registered a Ki of 367 nM.
